Read-outs that look alike come from different tables or passages of the source.
Experiments:
[1] = test system: androgen and oestrogen receptors; test: ED assays of androgen and oestrogen receptors (overall experimental ED result); format: cell-based
Experimental: The transcriptional activation of androgen receptor (AR) assays was carried out by adapting the OECD protocol 458 (OECD [2020]).
MDA-MB-453 cells (8000 cells/well) expressing an AR luciferase reporter were seeded into 384 white plates (Greiner 781098) in culture medium (DMEM (ATCC), 10% foetal bovine serum (Sigma Aldrich), 1% penicillin–streptomycin (Sigma-Aldrich), 75 µg/ml geneticin (Gibco) and incubated overnight at 37 °C 5% CO2 and 95% humidity. After this time, the cell culture medium was discarded and replaced by assay medium (DMEM (ATCC), 0.1% foetal bovine serum (Sigma-Aldrich), and 1% penicillin–streptomycin (Sigma Aldrich)).
For studying a putative agonist effect, compounds were added to the assay plate using an Echo 550 acoustic liquid handler and incubated overnight at 37 °C 5% CO2 and 95% humidity. For studying the putative antagonist effect, compounds were added using an Echo 550 acoustic liquid handler and incubated for 15 min at 37 °C 5% CO2 and 95% humidity. Then, 1 nM 5α-dihydrotestosterone (DHT) was added, and the cell plate was incubated overnight at 37 °C, 5% CO2, and 95% humidity. After compound incubation, the cell medium was removed, 5 µl of lysis buffer 1X (Promega) was added, and the cell plate was incubated with agitation 15 min at room temperature. A freeze–thaw cycle of 10 min at −80 °C and room temperature was performed. Then 25 µl of luciferase assay reagent (Promega) was added and luminescence was determined on an EnSpire plate reader (Perkin Elmer). Data was fitted to a four-parameter sigmoidal model with Prism 5.1 (Graphpad, Inc).
The transcriptional activation of oestrogen receptor (ER) assay was carried out by adapting the OECD protocol 455 (OECD [2021]) and the method of Li et al. ([2013]).
ER luciferase reporter T47D cells (5000 cells/well) were seeded into 384 white plates (Greiner 781098) in culture medium (RPMI 1640 (Thermo Fisher Scientific 52400), 10% foetal bovine serum (Sigma Aldrich F9665), 1% penicillin–streptomycin (Sigma-Aldrich P0781), 75 µg/ml Geneticin (Gibco 10131)) and incubated overnight at 37 °C and 5% CO2. The following day, the cell culture medium was discarded and replaced by assay medium (RPMI 1640 (Thermo Fisher Scientific 52,400), 0.1% foetal bovine serum (Sigma Aldrich F9665), and 1% penicillin–streptomycin (Sigma Aldrich P0781).
The assay was performed as stated before for the AR assay using 17β-estradiol as agonist instead of DHT.
ED was assessed by transactivation in vitro assays to identify agonists and antagonists of the androgen and oestrogen receptors.
Also, the experimental group analysed the endocrine-disrupting activity for the CMR compounds.

[2] = test system: CHO-K1 (Chinese hamster ovary cells); format: cell-based
Experimental: The in vitro micronucleus test is a genotoxicity test for the detection of micronuclei in the cytoplasm of interphase cells. Tests were conducted in the presence of the cytokinesis blocker cytochalasin B with three different treatment schedules: (i) short treatment for 6 h; (ii) short treatment for 6 h in the presence of an exogenous source of metabolic activation (cofactor supplemented S9 liver fraction); and (iii) extended treatment for 24 h.
CHO-K1 (Chinese hamster ovary cells, ATCC Item Number CCL-61) were cultured in DMEM F-12 containing 10% foetal bovine serum and 100 units/ml penicillin/100 μg/ml streptomycin (all from Sigma-Aldrich, St Louis, USA). Cells were seeded at 3000 cells/well in a collagen-coated 96-well plate in 100 μl. After 24 h, cells were incubated with CellTracker Orange CMTMR cellular dye solution (Invitrogen, Waltham, USA) for 1 h. Cells were then treated with compounds for 6 h, with or without S9 metabolic activation, or 24 h without S9 metabolic activation. […] After the 6-h compound treatment, cells were incubated with cytochalasin B (Alfa Aesar, Kandel, Germany) for 24 h. In case of 24-h treatment, cells were incubated with compounds in the presence of cytochalasin B and harvested after treatment. Benzo(a)pyrene, mitomycin C, and colchicine were used as positive controls for 6 h, with or without metabolic activation or 24 h treatments, respectively. […] After several washes with BupH-modified DPBS, cells were analysed in an Operetta High-Content Imaging System (PerkinElmer, Waltham, USA). […] Statistical significance was determined with the ANOVA test with significance level adjusted to p < 0.05.

zebrafish embryos [3] = conditions: in vivo
Experimental: (§1) Zebrafish embryos obtained and maintained as described previously for toxicity determination were used to determine (I) terato-carcinogenesis assayed as previously informed (Selderslaghs et al. [2009], [2012]) with modifications. In brief, embryos were incubated for 0 hpf up to 120 hpf in the presence and absence of tested compounds. Each condition was assayed in triplicate with 12 embryos per condition per replicate. The appearance of selected characteristics and malformations with respect to normal development were quantified for the eyes, otoliths, heart, circulation, hatching, skeletal deformities, and body position. For each concentration tested, we assessed the mortality and the presence of malformations at 24, 48, 72, 96, and 120 hpf using a light microscope. When possible, the lethal effects (LC50) and terato-carcinogenic effects (EC50) were determined using the ToxRat software. Based on these values, a teratogenic index (TI) was calculated as LC50/EC50. Based on previous studies, we considered a compound to be a teratogen when TI > 2 at 120 hpf. When no TI could be calculated due to no malformations induction to a degree extensive enough to calculate the EC50 in the presence of high toxicity, the compound was considered a non-teratogen. (II) Neurotoxicity was assayed by evaluating the locomotor activity in embryos exposed to the tested compounds from 0 to 120 hpf using Zebrabox and Zebralab (ViewPoint). We tested three concentrations (24 embryos per concentration) below the NOEC to avoid readily toxic concentrations. After incubation with tested compounds for 120 hs in 96-well plates, the activity of larvae in response to transitions from dark to light was evaluated. The protocol involved an initial 10 min acclimation period inside the Zebrabox, followed by three cycles of light–dark of 10 min each. After the end of each cycle, the integrated activity of each embryo was registered. Statistical analysis was done using ANOVA, followed by the Tukey post hoc test. Differences were considered significant when p < 0.05. Dead embryos were not considered in the analysis. (III) The endocrine-disrupting effect in zebrafish embryos was assayed by real-time PCR as previously reported (Jarque et al. [2019]) with modifications. In brief, 0 hpf embryos (12 embryos per condition in triplicate) were incubated with selected compounds for up to 120 hpf. After incubation, treated (embryos incubated at the concentration right below the NOEC) and control embryos were collected in RNA later and kept at − 20°C until use. RNA was extracted from the samples using the RNeasy Mini Kit (QIAGEN) and was followed by cDNA synthesis using random primers and the AffinityScript Multi Temperature cDNA Synthesis Kit (Agilent Technologies). Finally, real-time PCR was performed for eight target genes to obtain data on the estrogenic (cytochrome P450 family 19 subfamily A member 1: cyp19a1b, and vitellogenin: vtg1), androgenic (cytochrome P450 family 2 subfamily W member 1: cyp2k22, and cytosolic sulphotransferase 3: sult2st3), and thyroid hormone (thyroid peroxidase: tpo, thyroid hormone receptor alpha: tra, transthyretin: ttr, and iodothyronine deiodinase 2: dio2) effect of the tested compounds. Significant changes in gene expression between controls and treated samples were considered as a potential endocrine-disrupting effect.

zebrafish embryos [4] = conditions: in vivo; remark: listed apart in the source
Source text: In REACH, most of the mammalian tests for chemical safety assessment are related to reproductive toxicity (ECHA [2020]; Rovida and Hartung [2009]; Sellick [2011]) and consider complex molecular and cellular mechanisms determined in long-term experiments with very low throughput. To avoid the use of animals and to assay reproductive toxicity in a relevant 'non-animal' model adhering to the 3Rs rule, we used zebrafish embryos up to 120 hpf. Up to this developmental stage, the embryos are not considered animals according to European legislation (Sellick [2011]). When they reach the stage of independent feeding, zebrafish embryos become subject to regulations for animal experimentation. We performed a set of previously described experiments to cover a wide range of potential reprotoxic effects, including terato-carcinogenesis, developmental neurotoxicity, and endocrine disruption.
as §1, with “Technologies).” for “Technologies). Finally, real-time PCR was performed for eight target genes to obtain data on the estrogenic (cytochrome P450 family 19 subfamily A member 1: cyp19a1b, and vitellogenin: vtg1), androgenic (cytochrome P450 family 2 subfamily W member 1: cyp2k22, and cytosolic sulphotransferase 3: sult2st3), and thyroid hormone (thyroid peroxidase: tpo, thyroid hormone receptor alpha: tra, transthyretin: ttr, and iodothyronine deiodinase 2: dio2) effect of the tested compounds. Significant changes in gene expression between controls and treated samples were considered as a potential endocrine-disrupting effect.”

[5] = logKow as a measure of bioaccumulation, extracted from public databases; format: physicochemical; conditions: yes/no by logKow, REACH cut off 4,5
[6] = design: method as in earlier work; conditions: ref https://comptox.epa.gov/dashboard, https://echa.europa.eu/es/information-on-chemicals, cited from earlier work
Bhas 42 cell line = test: Bhas 42 cell transformation assay (carcinogenesis); format: cell-based
Experimental: This assay was carried out by adapting the in vitro Bhas 42 cell transformation assay method described in the OECD Guidance Document No. 231 ([2017]) based on the work of Sasaki et al. ([2014]).
It consists of two assays with a different test compound addition schedule to identify compounds with initiating activity (tumour initiators) or promoting activity (tumour promoters). Previously, a cell growth assay for 7 days is performed to set the assay doses of the CTA and another cell growth assay is concurrently performed to the CTA to verify that the selected doses meet the acceptance criteria for the tests.
The carcinogenesis potential of the compound was assayed by means of measuring the frequency of transformed foci (morphologically altered cells that form discrete anchorage-independent colonies) in the Bhas 42 cell line, which can be extrapolated to an assessment of carcinogenic potential. In the transformation assay, the incubation of compounds with two different treatment schedules allowed to identify the initiating or promoting carcinogenic potential of the compounds.

Cc1cc(N)ccc1N.O=S(=O)(O)O [2,5-Diaminotoluene sulphate]
Experimental result [1]: No

CC(Cl)C(=O)c1ccc(Cl)cc1 (centres unmarked) [2-Chloro-1-(4-chlorophenyl)propan-1-one]
Micronucleus assay (M) ([2]; 6 h with or without S9, 24 h without S9): Negative

C=Cc1ccccn1 [2-Ethenylpyridine]
Experimental result [1]: Yes

CC1=CC(=O)[C@@H](C(C)C)CC1 [(R)-6-(isopropyl)-3-methylcyclohex-2-en-1-one]
Micronucleus assay (M) [2]: Negative
Reprotoxicity (R) Endocrine disruptor (zebrafish embryos [3]): No
reduction of embryo integrated activity (zebrafish embryos [3]): up to 80%
Reprotoxicity (R) Teratogen (zebrafish embryos [4]): No

CC(C)[C@H]1CC[C@H](C)C[C@@H]1O [Cyclohexanol, 5-methyl-2-(1-methylethyl)-, (1S,2R,5S)-]
Experimental result [1]: No

C=C(C)C(=O)O [Methacrylic acid]
Bioaccumulation [5]: No
Bioaccumulation (logKow) ([6]; experimental value): 0.93

COC(=O)C=Cc1ccccc1 [Methyl cinnamate]
Bioaccumulation [5]: No
Bioaccumulation (logKow) ([6]; experimental value): 2.62

CCCCCC1C(=O)CCC1CC(=O)OC (centres unmarked) [Methyl dihydrojasmonate]
Experimental result [1]: Yes

CCNC(N)=O [N-Ethylurea]
Bioaccumulation [5]: No
Bioaccumulation (logKow) ([6]; experimental value): -0.74

C=CC(=O)NC(C)C [N-Isopropylacrylamide]
Bioaccumulation [5]: No
Bioaccumulation (logKow) ([6]; predicted value): 0.41

O=[N+]([O-])c1ccccc1 [Nitrobenzene]
Bioaccumulation [5]: No
Bioaccumulation (logKow) ([6]; experimental value): 1.85

c1ccc2c(c1)ccc1ccccc12 [Phenanthrene]
Experimental result [1]: Yes

O=[PH](O)O [Phosphonic acid]
Carcinogen (C) (Bhas 42 cell line): No
Experimental result [1]: No

C#CCBr [Propargyl bromide]
Experimental result ([1]; endocrine disruptor yes/no): Yes
